Results reported in article PMC8972196, “A Set of Experimentally Validated Decoys for the Human CC Chemokine Receptor 7 (CCR7) Obtained by Virtual Screening” (Frontiers in Pharmacology, 2022).
Read-outs that look alike come from different tables or passages of the source.

Molecular target: T1, human CCR7 (Homo sapiens, UniProt P32248)
T1 construct: expressed in transfected cells
T1 sequence (P32248 25-378): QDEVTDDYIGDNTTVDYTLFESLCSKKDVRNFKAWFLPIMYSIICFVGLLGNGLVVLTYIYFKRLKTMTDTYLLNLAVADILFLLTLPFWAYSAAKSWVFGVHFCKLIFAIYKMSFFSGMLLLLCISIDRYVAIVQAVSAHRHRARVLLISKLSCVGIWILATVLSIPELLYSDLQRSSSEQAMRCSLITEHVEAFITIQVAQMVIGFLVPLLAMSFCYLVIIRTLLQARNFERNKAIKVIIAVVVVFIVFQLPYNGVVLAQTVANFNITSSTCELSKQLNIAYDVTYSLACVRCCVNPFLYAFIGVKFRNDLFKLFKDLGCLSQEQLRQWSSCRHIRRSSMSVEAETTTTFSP
Assay: CCL19-induced calcium mobilization assay, U87.CD4 cells expressing CCR7
Assay type: cell-based
Settings: for IC50: read-out: IC50 [μM] block CCL19 induced calcium signaling
Procedure, shortened: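 Calcium mobilization was recorded in U87.CD4 cells stably carrying human CXCR2 (stimulated with CXCL8), CCR7 (stimulated with CCL19) or CCR5. Cells were plated at 20,000 cells/well, cultured overnight at 37°C in 5% CO2, and incubated 45 min at room temperature in the dark before reading.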

[1] = CCL19-induced calcium signaling
[2] = classification of tested compounds as decoy or active
[3] = CCL19 induced calcium signaling
[4] = classification as decoy or active on CCR7

SMILES: CNC(=O)c1cccc(NC(=O)N2CC[C@@H](c3ccccc3)C2)c1C [C098, CNC(=O)c1cccc(NC(=O)N2CC[C@@H](c3ccccc3)C2)c1C]
- IC50 [1]: > 50 µM
- Decoy – 0 Active – 1 [2]: 0

SMILES: COC(=O)c1sccc1Nc1c(NC2CCCCC2)c(=O)c1=O [C006, COC(=O)c1sccc1Nc1c(NC2CCCCC2)c(=O)c1=O]
- IC50 [1]: > 50 µM
- Decoy – 0 Active – 1 [2]: 0

SMILES: CC[C@@H](NS(=O)(=O)NCc1ccccc1)c1cc(C)ccn1 [C137, CC[C@@H](NS(=O)(=O)NCc1ccccc1)c1cc(C)ccn1]
- IC50 [1]: > 50 µM
- Decoy – 0 Active – 1 [2]: 0

SMILES: COc1c(Nc2cc(C(F)(F)F)cc(C(F)(F)F)c2)c(=O)c1=O [C025, O=C1C(OC)=C(NC2=CC(C(F)(F)F)=CC(C(F)(F)F)=C2)C1=O]
- IC50 [1]: > 30 µM
- Decoy – 0 Active – 1 [2]: 0

SMILES: Cc1ccc(C(=O)N2CCC3(CC2)CCC3(C)O)cc1N1CCCC1=O (centres unmarked) [C224, Cc1ccc(C(=O)N2CCC3(CC2)CCC3(C)O)cc1N1CCCC1=O]
- IC50 [3]: > 50 µM
- Decoy – 0 Active – 1 [4]: 0

SMILES: COc1cccc(N(CC(=O)N2CCC(C(N)=O)CC2)S(=O)(=O)c2ccc(C)cc2)c1 [C253, Cc1ccc(cc1)S(=O)(=O)N(CC(=O)N2CCC(CC2)C(=O)N)c3cccc(c3)OC]
- IC50 [3]: > 50 µM
- Decoy – 0 Active – 1 [4]: 0

SMILES: COc1ccc(CNc2c(NC(C)c3ccccc3)c(=O)c2=O)cc1OC (centres unmarked) [C014, COc1ccc(CNc2c(NC(C)c3ccccc3)c(=O)c2=O)cc1OC]
- IC50 [1]: > 50 µM
- Decoy – 0 Active – 1 [2]: 0

SMILES: COC(=O)c1ccccc1Nc1c(N2CCNC(=O)C2)c(=O)c1=O [C005, COC(=O)c1ccccc1Nc1c(N2CCNC(=O)C2)c(=O)c1=O]
- IC50 [1]: > 50 µM
- Decoy – 0 Active – 1 [2]: 0

SMILES: COc1ccc(CCNC(=O)CN(c2ccc([N+](=O)[O-])cc2)S(=O)(=O)c2ccccc2)cc1 [C271, COc1ccc(cc1)CCNC(=O)CN(c2ccc(cc2)[N+](=O)[O-])S(=O)(=O)c3ccccc3]
- IC50 [3]: > 50 µM
- Decoy – 0 Active – 1 [4]: 0

SMILES: FC(F)(F)c1ccccc1NC(=S)Nc1ccc(OCc2ccccc2)cc1 [C035, FC(F)(F)c1ccccc1NC(=S)Nc1ccc(OCc2ccccc2)cc1]
- IC50 [1]: > 30 µM
- Decoy – 0 Active – 1 [2]: 0

SMILES: CCc1ccc(C(NC(=O)C(=O)Nc2cccnc2C)C(C)(C)C)o1 (centres unmarked) [C069, CCc1ccc(C(NC(=O)C(=O)Nc2cccnc2C)C(C)(C)C)o1]
- IC50 [1]: > 10 µM
- Decoy – 0 Active – 1 [2]: 0

SMILES: CN(C)C(=O)c1cccc(N[C@H]2CCCN(Cc3cccc(O)c3)C2)n1 [C111, CN(C)C(=O)c1cccc(N[C@H]2CCC[N@H+](Cc3cccc(O)c3)C2)n1]
- IC50 [1]: > 50 µM
- Decoy – 0 Active – 1 [2]: 0

SMILES: Cc1ccc(C(=O)NC2CCC(=O)NC2C)cc1N1CCOCC1 (centres unmarked) [C211, Cc1ccc(C(=O)NC2CCC(=O)NC2C)cc1N1CCOCC1]
- IC50 [3]: > 50 µM
- Decoy – 0 Active – 1 [4]: 0

SMILES: CCc1ccc(S(=O)(=O)NC2Cc3cc(C(=O)NC(C)C)nn3C2)cc1 (centres unmarked) [C241, CCc1ccc(cc1)S(=O)(=O)NC2Cc3cc(nn3C2)C(=O)NC(C)C]
- IC50 [3]: > 50 µM
- Decoy – 0 Active – 1 [4]: 0

SMILES: CCOC(=O)c1c(C)c(CCC(=O)N[C@H](C)c2ccccc2)c(C)n1C [C082, CCOC(=O)c1c(C)c(CCC(=O)N[C@H](C)c2ccccc2)c(C)n1C]
- IC50 [1]: > 50 µM
- Decoy – 0 Active – 1 [2]: 0

SMILES: Cc1cccnc1[C@H](N[C@H]1CCN(CC(F)(F)F)C1=O)C(C)C [C138, Cc1cccnc1[C@H]([NH2+][C@H]1CCN(CC(F)(F)F)C1=O)C(C)C]
- IC50 [1]: > 50 µM
- Decoy – 0 Active – 1 [2]: 0

SMILES: CN(Cc1csc(-c2ccccc2)n1)C(=O)c1c[nH]c(=O)c(Cl)c1 [C232, CN(Cc1csc(-c2ccccc2)n1)C(=O)c1c[nH]c(=O)c(Cl)c1]
- IC50 [3]: > 50 µM
- Decoy – 0 Active – 1 [4]: 0

SMILES: CN(C)C(=O)c1ccc(CN2CCCC[C@H]2CCn2cccn2)o1 [C105, CN(C)C(=O)c1ccc(C[N@H+]2CCCC[C@H]2CCn2cccn2)o1]
- IC50 [1]: > 50 µM
- Decoy – 0 Active – 1 [2]: 0

SMILES: CC(C)[C@@H]1OCCC[C@@H]1Nc1cc(N2CC[C@H](OCc3ccccn3)C2)ncn1 [C084, CC(C)[C@@H]1OCCC[C@@H]1Nc1cc(N2CC[C@H](OCc3ccccn3)C2)ncn1]
- IC50 [1]: > 50 µM
- Decoy – 0 Active – 1 [2]: 0

SMILES: O=S(=O)(NCC(c1ccco1)N1CCc2ccccc21)c1ccc2c(c1)OCCO2 (centres unmarked) [C238, c1ccc2c(c1)CCN2C(CNS(=O)(=O)c3ccc4c(c3)OCCO4)c5ccco5]
- IC50 [3]: > 50 µM
- Decoy – 0 Active – 1 [4]: 0

SMILES: CC(Nc1c(NCc2ccc3c(c2)OCO3)c(=O)c1=O)c1ccccc1 (centres unmarked) [C013, CC(Nc1c(NCc2ccc3c(c2)OCO3)c(=O)c1=O)c1ccccc1]
- IC50 [1]: > 50 µM
- Decoy – 0 Active – 1 [2]: 0

SMILES: CCn1nccc1[C@H]1NC(=O)CC[C@H]1NC(=O)c1cc(C)n(C)n1 [C152, CCn1nccc1[C@H]1NC(=O)CC[C@H]1NC(=O)c1cc(C)n(C)n1]
- IC50 [1]: > 50 µM
- Decoy – 0 Active – 1 [2]: 0

SMILES: CN(C)C(=O)c1ccc(Cl)c(NCC(=O)N(C)Cc2ccco2)c1 [C061, CN(C)C(=O)c1ccc(Cl)c(NCC(=O)N(C)Cc2ccco2)c1]
- IC50 [1]: > 10 µM
- Decoy – 0 Active – 1 [2]: 0

SMILES: Cc1ccc(CNC(=O)c2nnc(-c3ccc(S(=O)(=O)N4CCCC4)cc3)o2)o1 [C091, Cc1ccc(CNC(=O)c2nnc(-c3ccc(S(=O)(=O)N4CCCC4)cc3)o2)o1]
- IC50 [1]: > 50 µM
- Decoy – 0 Active – 1 [2]: 0

SMILES: CN(C)C(=O)Cn1cccc(NC(=O)CCC(C)(C)c2ccccc2)c1=O [C128, CN(C)C(=O)Cn1cccc(NC(=O)CCC(C)(C)c2ccccc2)c1=O]
- IC50 [1]: > 50 µM
- Decoy – 0 Active – 1 [2]: 0

SMILES: O=C([C@@H]1C[C@@H]1c1ccco1)N1CCC[C@H]1Cc1ccc(F)cc1 [C154, O=C([C@@H]1C[C@@H]1c1ccco1)N1CCC[C@H]1Cc1ccc(F)cc1]
- IC50 [1]: > 50 µM
- Decoy – 0 Active – 1 [2]: 0

SMILES: Cc1ccc(CNC(=O)c2nnc(-c3ccc(S(=O)(=O)N(C)C)cc3)o2)o1 [C088, Cc1ccc(CNC(=O)c2nnc(-c3ccc(S(=O)(=O)N(C)C)cc3)o2)o1]
- IC50 [1]: > 50 µM
- Decoy – 0 Active – 1 [2]: 0

SMILES: CNC(=O)CN(c1ccc(Cl)cc1)S(=O)(=O)c1ccc(OC)c(OC)c1 [C270, CNC(=O)CN(c1ccc(cc1)Cl)S(=O)(=O)c2ccc(c(c2)OC)OC]
- IC50 [3]: > 50 µM
- Decoy – 0 Active – 1 [4]: 0

SMILES: O=S(=O)(NC(c1ccccc1)c1ccccn1)c1ccc2c(c1)OCCCO2 (centres unmarked) [C252, c1ccc(cc1)C(c2ccccn2)NS(=O)(=O)c3ccc4c(c3)OCCCO4]
- IC50 [3]: > 50 µM
- Decoy – 0 Active – 1 [4]: 0

SMILES: O=c1[nH]c(NCC(O)c2ccc3ccccc3c2)nc2ccccc12 (centres unmarked) [C219, O=c1[nH]c(NCC(O)c2ccc3ccccc3c2)nc2ccccc12]
- IC50 [3]: > 50 µM
- Decoy – 0 Active – 1 [4]: 0

SMILES: O=C(CCCc1c[nH]c2ccccc12)N1CCN(C(=O)CCCc2c[nH]c3ccccc23)CC1 [C209, O=C(CCCc1c[nH]c2ccccc12)N1CCN(C(=O)CCCc2c[nH]c3ccccc23)CC1]
- IC50 [3]: > 50 µM
- Decoy – 0 Active – 1 [4]: 0

SMILES: FC(F)(F)c1cccc(Cn2cnc(NC(=S)NCCc3ccccc3)n2)c1 [C027, FC(F)(F)c1cccc(Cn2cnc(NC(=S)NCCc3ccccc3)n2)c1]
- IC50 [1]: > 30 µM
- Decoy – 0 Active – 1 [2]: 0

SMILES: Cc1ccc(S(=O)(=O)N(CC(O)CN2CCCCC2)c2ccccc2)cc1 (centres unmarked) [C244, Cc1ccc(cc1)S(=O)(=O)N(CC(C[NH+]2CCCCC2)O)c3ccccc3]
- IC50 [3]: > 50 µM
- Decoy – 0 Active – 1 [4]: 0

SMILES: Cc1cccc([C@H](NC(=O)c2cc(-c3ccccc3F)n[nH]2)C2CC2)n1 [C136, Cc1cccc([C@H](NC(=O)c2cc(-c3ccccc3F)n[nH]2)C2CC2)n1]
- IC50 [1]: > 50 µM
- Decoy – 0 Active – 1 [2]: 0
